The results in this text go back to paper PMC11109052, “Metabolism characterization and toxicity of N-hydap, a marine candidate drug for lung cancer therapy by LC–MS method” (Natural Products and Bioprospecting, 2024).

Entries after “also recorded” stand apart in the source; their conditions may differ.

The subject of data set [1] is Cyp1a2. Kind of data set: DME activity ex vivo in MLMs and MKMs: CYP1A2 (APAP from PH). On the set-up: species or system mice; key to CYP1A2 Enzymatic activity: ↑: up-regulation; ↓: down-regulation; –: no change. The protocol: (§1) Mice were randomly divided into four groups, with eight animals in each group. The mice received oral pretreatment with N-hydap for 7 days at doses of 2, 5, and 10 mg/kg/day, which were considered as the low dose, medium dose, and high dose, respectively. Correspondingly, the control group received PBS. On the 8th day, the liver and kidneys were removed, and organs from eight mice per group were combined to prepare MLMs and MKMs using the detailed procedures above. Subsequently, we determined the activity of CYP and UGT enzymes by specific substrate metabolized with MLMs (0.5 mg/mL) and MKMs (0.2 mg/mL) in vitro. Specifically, the following selective substrates were used for the respective enzymes: PH (1 μM) for CYP1A2, DIC (1 μM) for CYP2C9, MP (90 μM) for CYP2C19, DM (1 μM) for CYP2D6, CZX (10 μM) for CYP2E1, Tes (1 μM) for CYP3A4, SN38 (1 μM) for UGT1A1, CACD (100 μM) for UGT1A3, Sero (20 μM) for UGT1A6, and Prop (1 μM) for UGT1A9. All substrates were dissolved in methanol or DMSO. The incubation procedure was carried out as mentioned above, and the reaction was terminated with VER (20 ng/mL) in ESI+ mode and CLP (200 ng/mL) in ESI− mode. In the ex vivo experiments, the activity of enzymes was measured by quantifying the production of various metabolites (nM/mg protein/min). The metabolites and their corresponding enzymes are as follows: APAP from PH, 4-OH-DIC from DIC, 4-OH-MP from MP, DXO from DM, 6-OH-CZX from CZX, 6-OH-Tes from Tes, SN38-G from SN38, CACD-G from CACD, Sero-G from Sero, Prop-G from Prop. The measurements were performed using multiple reaction monitoring (MRM) transitions, which are specific mass spectrometry transitions used for quantification. The optimized parameters for each metabolite, such as declustering potential and collision energy, were described in Supplementary Table 1. All experiments were conducted in triplicate, to ensure accuracy and reproducibility.

Another data set relates to normal wild-type mice. The experiment in a line: Toxicity of 7-day gavage in normal wild-type mice.
Another data set relates to RLMs. Kind of data set: Kinetics of N-hydap glucuronidation in RLMs. It counts as in vitro ADME, rat. The settings on record: RLM. The method, then: In this study, the rats were executed by drawing blood from the abdominal aorta and mice were sacrificed with cervical dislocation before the liver and kidneys were excised. The liver and kidneys were removed, and washed with chilled cleansing solution (contains 8 mM KH2PO4, 5.6 mM EDTA·K2·2H2O, 1 mM DTT and 229.6 μM PMSF), homogenized in a tissue homogenate buffer with a pH of 7.4, (consisting of […], 8 mM K2HPO4, 250 mM sucrose, 1 mM EDTA·K2·2H2O and 229.6 μM PMSF). Subsequently, the homogenate was centrifuged at 10,400 rpm at 4 °C for 15 min, and the supernatant was then centrifuged at 35,000 rpm at 4 °C for 60 min. A 250 mM sucrose buffer was added to the pellet to reconstitute and the resuspension was stored at − 80 °C until use. Microsome protein concentrations were measured by Omni-Easy™ Instant BCA Protein Assay Kit.
Various microsomes including HLMs, HKMs, HIMs, RLMs, RKMs, MLMs and MKMs were involved in CYP and UGT reactions of N-hydap. […]
The substrate concentrations used for HLMs were 0.05, 0.5, 2, 2.5, 5, 10, 25, 50, and 100 μM. […] The rates of N-hydap-G by enzymes were expressed as nmol/mg/min, representing the amount of metabolites formed per minute per milligram of protein. Kinetic parameters were determined by analyzing the Eadie–Hofstee plots. […]

A further data set has as its system CYP2B6. Kind of data set: Western blot protein level after 7 days gavage: CYP2B6. It counts as in vivo. The note with it: mice, p.o. 7 days; liver. The protocol:
Mice were randomly divided into four groups, with eight animals in each group. The mice received oral pretreatment with N-hydap for 7 days at doses of 2, 5, and 10 mg/kg/day, which were considered as the low dose, medium dose, and high dose, respectively. Correspondingly, the control group received PBS. On the 8th day, the liver and kidneys were removed, and organs from eight mice per group were combined to prepare MLMs and MKMs using the detailed procedures above. Subsequently, we determined the activity of CYP and UGT enzymes by specific substrate metabolized with MLMs (0.5 mg/mL) and MKMs (0.2 mg/mL) in vitro. […] In the ex vivo experiments, the activity of enzymes was measured by quantifying the production of various metabolites (nM/mg protein/min). […] The measurements were performed using multiple reaction monitoring (MRM) transitions, which are specific mass spectrometry transitions used for quantification. […]
(§2) After 7 days of N-hydap gavage, the liver and kidney tissues were lysed using RIPA buffer supplemented with a 1% protease inhibitor cocktail. […] Western blot signals were detected using an ECL chemiluminescence detection agent. The relative intensity of each protein band was scanned and quantified using Image J software.

Data set [2] has as its system Cyp1a2. Kind of data set: Western blot protein level after 7 days gavage: CYP1A2. It counts as in vivo, mice. Also noted: key to CYP1A2 Protein expression: ↑: up-regulation; ↓: down-regulation; –: no change. The protocol: as §1, with “The optimized parameters for each metabolite, such as declustering potential and collision energy, were described in Supplementary Table 1. All experiments were conducted in triplicate, to ensure accuracy and reproducibility.” left out
as §2
A general note: A western blot detects proteins with antibodies after separation by electrophoresis.

Where [3] appears, read: mice, 2, 5, 10 mg/kg gavage, 7 days.

Procedure for normal wild-type mice: During the continuous gavage administration of N-hydap (2, 5, 10 mg/kg) to mice, their body weight was monitored daily and the mice’s activity and mental state were closely observed. […] To assess the extent of injury in the heart, liver, and kidneys, cardiac LDH, plasma ALT, AST, and Cr were measured as biochemical markers (Fig. 7B–D). Additionally, blood routines were examined, including RBC (10^12/L), HCT (%), HGB (g/dL), WBC (10^9/L), PLT (10^9/L), and Lymphocytes (%), which were used as indicators to evaluate spleen toxicity (Fig. 7E). […] To investigate this further, HE staining on tissue sections was performed from both the control group and the highest dose group (10 mg/kg).
Fig. 7 Normal wild-type mice were administered by N-hydap (2, 5, 10 mg/kg) gavage for 7 days. A Changes in body weight in mice. B Cardiac LDH level. C, D Plasma ALT, AST and Cr levels. E Blood routine indicators including RBC, HCT, HGB, WBC, PLT and Lymphocytes. F H&E staining of sections of primary organs, original magnification ×200 (mean ± S.D, n = 5–6/group). ns, no significance, were compared with control group.

Regarding `CC1CCC2C(C=CC(C)C2C(=O)c2c(O)c(C3(O)CCC(O)C4OC43)cn(O)c2=O)C1` (centres unmarked) [N-hydap, N-Hydroxyapiosporamide], the “CYP1A2 Enzymatic activity” value in the data set on Cyp1a2 [1] (Kidney) is on record as “↑”. Also, in the data set on Cyp1a2 [1] (Liver), the “CYP1A2 Enzymatic activity” value is recorded as “–”. In addition, the “elevation of formation rate of APAP” value with Cyp1a2 [1] (MKMs, range stated jointly for APAP, SN38-G, 6-OH-Tes and CDCA-G) is listed as 12%-331%. Besides, the “Toxicity LD50, experimental results” value in the data set with normal wild-type mice (Table 4 experimental column) is on record as “High security”. For the same compound, in the data set on normal wild-type mice (setting [3]), the behavior during gavage result is listed as “did not exhibit any abnormal behavior”; the “biochemical markers (cardiac LDH, plasma ALT, AST, Cr) and blood routine indicators vs control” value is listed as “did not show any significant differences”; the body weight entry is “No significant changes”. Also, the “HE staining of important tissues and organs” value in the data set with normal wild-type mice (mice, highest dose group 10 mg/kg, 7 days) was “maintained their structural integrity”. Also, the “toxicity of continuous gavage at normal doses” value in the data set on normal wild-type mice (normal wild mice, 2, 5, 10 mg/kg, 7 days) is reported as “did not result in significant toxicity; also recorded: did not exhibit any toxicity”. Besides, the Michaelis constant (Km) in the data set with RLMs was determined as 0.357 µM. The “increase of protein levels of CYP2B6” value with CYP2B6 was determined as 92%. Moreover, in the data set on Cyp1a2 [2] (Kidney), the “CYP1A2 Protein expression” value is “↑”. Besides, in the data set on Cyp1a2 [2] (mice, 10 mg/kg p.o. 7 days, kidney), the “up-regulation of protein levels of CYP1A2” value came out at 117%. Also, in the data set with Cyp1a2 [2] (mice, p.o. 7 days, liver), the “decrease of protein levels of CYP1A2” value was determined as 68%.

The term Km denotes the concentration of substrate that gives half-maximal velocity.
